One data set concerns Ty-82. In words: Antiproliferative activity against human Ty-82 cells incubated for 72 hrs by sulforhodamine B based cell counting kit-8 assay. The data set is classed as functional. As to conditions: TY82, 72 h.
The next data set deals with MM1.S. In words: Antiproliferative activity against human MM1.S cells incubated for 72 hrs by sulforhodamine B based cell counting kit-8 assay. The data set is classed as functional.
For data set [1], the target named is Bromodomain-containing protein 4 (Homo sapiens, UniProt O60885). In words: Inhibition of full length BRD4 (unknown origin) transfected in HEK293 cells incubated for 20 hrs measured by NanoBRET BRD4/Histone H3.3 interaction assay kit. It is filed as cell-based.
Data set [2] in a line: Half life in CD-1 mouse at 10 mg/kg, po. Particulars: in vivo. The data set is classed as ADME, organism-based.
A short description of data set [3]: Tmax in CD-1 mouse at 10 mg/kg, po. As to conditions: in vivo. It is filed as ADME, organism-based.
Data set [4] can be described thus: Cmax in CD-1 mouse at 10 mg/kg, po. The data set is classed as ADME, organism-based. Further details: dose 10 mg/kg, route po. Particulars: in vivo.
Data set [5] is described as follows: AUClast in CD-1 mouse at 10 mg/kg, po. More on the design: dose 10 mg/kg, route po. The data set is classed as ADME, organism-based. Particulars: in vivo.
A short description of data set [6]: Observed AUC infinity in CD-1 mouse at 10 mg/kg, po. Further details: dose 10 mg/kg, route po. Particulars: in vivo. The data set is classed as ADME, organism-based.
A short description of data set [7]: Observed MRT infinity in CD-1 mouse at 10 mg/kg, po. As to conditions: in vivo. It is filed as ADME, organism-based.

Molecules are shown by their SMILES.

As for `Cc1ccc(-n2nc(C(=O)N3CCNCC3)nc2-c2ccc3c(c2)N(C2CCCC2)[C@@H](C)C(=O)N3C)cc1`, the IC50 is above 20000 nM in the data set on Ty-82, above 20000 nM in the data set on MM1.S and 1730 nM in data set [1].
Take `Cc1ccc(-n2nc(C(=O)N3CCN(C(=O)c4nc(-c5ccc6c(c5)N(C5CCCC5)[C@@H](C)C(=O)N6C)n(-c5ccc(C)cc5)n4)CC3)nc2-c2ccc3c(c2)N(C2CCCC2)[C@H](C)C(=O)N3C)cc1`: the half-inhibitory concentration (IC50) was 16.7 nM with Ty-82, 3.12 nM in the data set on MM1.S and 66.6 nM in data set [1].
Turning to `Cc1ccc(-n2nc(C(=O)N[C@@H]3CCCC[C@H]3NC(=O)c3nc(-c4ccc5c(c4)N(C4CCCC4)[C@H](C)C(=O)N5C)n(-c4ccc(C)cc4)n3)nc2-c2ccc3c(c2)N(C2CCCC2)[C@H](C)C(=O)N3C)cc1`, in data set [2], the half-life is 6 min. Besides, the Tmax in [3] worked out at 160 min. Moreover, in data set [4], the Cmax worked out at 33.7 ng/mL. Besides, the AUC(0-t) in data set [5] worked out at 205 ng·h/mL. Moreover, the AUC(0-inf) in data set [6] is 278 ng·h/mL. Further, the MRT in [7] was determined as 672 min.
In the case of `Cc1ccc(-n2nc(C(=O)N3C[C@H](C)N(C(=O)c4nc(-c5ccc6c(c5)N(Cc5ccccc5)[C@H](C)C(=O)N6C)n(-c5ccc(C)cc5)n4)C[C@H]3C)nc2-c2ccc3c(c2)N(Cc2ccccc2)[C@H](C)C(=O)N3C)cc1`, the IC50 in the data set on Ty-82 turned out to be 1.12 nM; in the data set with MM1.S, 1.77 nM.
In the case of `Cc1ccc(-n2nc(C(=O)NCCNC(=O)c3nc(-c4ccc5c(c4)N(C4CCCC4)[C@H](C)C(=O)N5C)n(-c4ccc(C)cc4)n3)nc2-c2ccc3c(c2)N(C2CCCC2)[C@H](C)C(=O)N3C)cc1`, the Tmax in data set [3] amounted to 166 min. Further, the peak level in data set [4] (Cmax) was 33.7 ng/mL.
Take `Cc1ccc(-n2nc(C(=O)N3C[C@H](C)N(C(=O)c4nc(-c5ccc6c(c5)N(C5CCCC5)[C@H](C)C(=O)N6C)n(-c5ccc(C)cc5C)n4)C[C@H]3C)nc2-c2ccc3c(c2)N(C2CCCC2)[C@H](C)C(=O)N3C)c(C)c1`: the IC50 with Ty-82 came to 0.75 nM; with MM1.S, 0.29 nM.
Regarding `Cc1ccc(-n2nc(C(=O)N3CC4(C3)CN(C(=O)c3nc(-c5ccc6c(c5)N(C5CCCC5)[C@H](C)C(=O)N6C)n(-c5ccc(C)cc5)n3)C4)nc2-c2ccc3c(c2)N(C2CCCC2)[C@H](C)C(=O)N3C)cc1`, the IC50 was 76 nM in the data set with Ty-82 and 12.6 nM with MM1.S.
In the case of `Cc1ccc(-n2nc(C(=O)N(C)CCN(C)C(=O)c3nc(-c4ccc5c(c4)N(C4CCCC4)[C@H](C)C(=O)N5C)n(-c4ccc(C)cc4)n3)nc2-c2ccc3c(c2)N(C2CCCC2)[C@H](C)C(=O)N3C)cc1`, the half-life in [2] was 29.4 min. Further, the time of peak concentration (Tmax) in data set [3] worked out at 15 min. Moreover, the peak level in [4] (Cmax) was 264 ng/mL. In addition, the AUC(0-t) in [5] was 124 ng·h/mL. This molecule also registered an AUC(0-inf) in [6] of 129 ng·h/mL. The MRT in data set [7] came out at 64.2 min.
As to `Cc1ccc(-n2nc(C(=O)N3CCC4(CCN(C(=O)c5nc(-c6ccc7c(c6)N(C6CCCC6)[C@H](C)C(=O)N7C)n(-c6ccc(C)cc6)n5)C4)C3)nc2-c2ccc3c(c2)N(C2CCCC2)[C@H](C)C(=O)N3C)cc1`, the half-maximal inhibitory concentration (IC50) in the data set on Ty-82 was 2.5 nM; with MM1.S, 0.74 nM.
With `C[C@@H]1C(=O)N(C)c2ccc(-c3nc(C(=O)N4CCN(C(=O)c5nc(-c6ccc7c(c6)N(C6CCCC6)[C@H](C)C(=O)N7C)n(-c6ccc7ccccc7c6)n5)CC4)nn3-c3ccc4ccccc4c3)cc2N1C1CCCC1`, the half-inhibitory concentration (IC50) in the data set on Ty-82 came out at 0.6 nM; with MM1.S it was 0.51 nM.
Turning to `Cc1ccc(-n2nc(C(=O)N3CCCN(C(=O)c4nc(-c5ccc6c(c5)N(C5CCCC5)[C@H](C)C(=O)N6C)n(-c5ccc(C)cc5)n4)CC3)nc2-c2ccc3c(c2)N(C2CCCC2)[C@H](C)C(=O)N3C)cc1`, the half-life in data set [2] was 9 min. In data set [3], the Tmax is 30 min. This molecule also showed a peak concentration (Cmax) in data set [4] of 286 ng/mL. In [5], the area under the curve AUC(0-t) stood at 368 ng·h/mL. This molecule also displayed an AUC(0-inf) in [6] of 371 ng·h/mL. This molecule also showed an MRT in data set [7] of 154 min.
In data set [2], `Cc1ccc(-n2nc(C(=O)NCCCNC(=O)c3nc(-c4ccc5c(c4)N(C4CCCC4)[C@H](C)C(=O)N5C)n(-c4ccc(C)cc4)n3)nc2-c2ccc3c(c2)N(C2CCCC2)[C@H](C)C(=O)N3C)cc1` had a half-life of 44.4 min. The Tmax in data set [3] was determined as 34.8 min. In data set [4], this molecule registered a peak concentration (Cmax) of 58.1 ng/mL. For the same molecule, the area under the curve AUC(0-t) in [5] came to 71.5 ng·h/mL. Also, in data set [6], the area under the curve AUC(0-inf) was found to be 75.8 ng·h/mL. In addition, the MRT in data set [7] worked out at 105 min.

Values taken from ChEMBL document CHEMBL5352381, “Design and development of a novel series of oral bivalent BET inhibitors with potent anticancer activities” (Eur J Med Chem, 2022).
